Laboratory results: article PMC11414077, “Novel thiazole-based cyanoacrylamide derivatives: DNA cleavage, DNA/BSA binding properties and their anticancer behaviour against colon and breast cancer cells” (BMC Chemistry, 2024)

Experiments:
[1] = target: T1, BSA (Bos taurus, UniProt P02769); assay: Tryptophan quenching assay with BSA; format: binding, bovine; details: for kq / n (binding site numbers) / Kb: BSA; for n (binding site numbers) / Kb: Scatchard method; for Kb / KSV: room temperature; for KSV: Stern–Volmer, BSA 15 µM, λex 289 nm
T1 construct: purchased BioBasic Inc. (Canada)
T1 sequence (P02769 25-607): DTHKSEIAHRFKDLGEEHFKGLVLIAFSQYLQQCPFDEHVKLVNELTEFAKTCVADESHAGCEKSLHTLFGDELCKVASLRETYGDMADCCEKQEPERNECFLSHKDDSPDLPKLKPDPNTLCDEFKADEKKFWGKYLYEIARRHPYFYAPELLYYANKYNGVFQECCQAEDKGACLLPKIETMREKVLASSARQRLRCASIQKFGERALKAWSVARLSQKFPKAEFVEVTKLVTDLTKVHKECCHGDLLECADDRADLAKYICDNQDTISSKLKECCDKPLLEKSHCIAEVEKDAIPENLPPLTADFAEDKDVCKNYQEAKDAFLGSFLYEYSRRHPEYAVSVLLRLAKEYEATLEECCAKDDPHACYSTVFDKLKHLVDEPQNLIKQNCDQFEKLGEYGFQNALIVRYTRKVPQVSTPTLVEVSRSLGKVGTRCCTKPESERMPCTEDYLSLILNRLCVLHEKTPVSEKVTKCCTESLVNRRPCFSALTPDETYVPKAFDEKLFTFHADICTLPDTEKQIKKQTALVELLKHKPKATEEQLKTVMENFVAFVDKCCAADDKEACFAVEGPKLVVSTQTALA
Procedure: BSA (15 µM) solution was prepared in Tris/HCl buffer solution (pH = 7.1) and mixed with serial concentrations of compounds 3b and 3c (0–40 µM), achieving 5% final concentration of DMSO. Following 3 min incubation after each addition, fluorescence quenching spectra were recorded from 300 to 450 nm using a spectrofluorometer with an excitation wavelength of 289 nm.
Fluorescence investigations could be used to conduct a specified analysis of whether synthetic molecules bind to biomolecules as BSA. It is widely perceived that predominantly tryptophan (Trp) is responsible for the inherited fluorescence among the other two amino acids [tyrosine (Tyr) and phenylalanine (Phe)] in the BSA [88]. The tryptophan emission spectrum is frequently altered because of protein conformational variation, subunit interactions, substrate binding, or denaturation. Reduced fluorescence emission intensity is observed for 3b and 3c, which may be due to disrupted BSA structure altering the tryptophan microenvironments. Moreover, the internalization of fluorophore residues into the protein's hydrophobic core is due to protein folding or related to the hydrophobic amino acid residues around Trp, such as Leu, Tyr, and phe. […] Also, a linear plot of F0/F against the concentration of 3b and 3c was used for computing the values of KSV (9.0 × 10^4 and 9.9 × 10^4 M^−1) and kq (9.0 × 10^12 and 9.9 × 10^12 M^−1 s^−1) for the titled compounds (3b and 3c, respectively). […] The negative values of ΔG also supported the UV–Vis results of free energy changes and implied the spontaneity of 3b/3c–BSA binding, where the interaction parameters were illustrated in Table 2.

[2] = tested on: CT-DNA-EtBr; assay: Ethidium bromide quenching (displacement) assay; format: binding, calf; details: for kq / KSV: CT-DNA-EtBr; for kq: τ0 10^−8 s; for reduction in fluorescence intensity: EtBr 20 µM, CT-DNA 100 µM, 3b 0–160 µM, 3c 0–80 µM; for KSV: Stern–Volmer, room temperature
Procedure: EtBr is a conventional intercalator whose fluorescence intensity intensifies in response to CT-DNA interaction. Solution of CT-DNA-EtBr with final concentrations of EtBr (20 µM) and CT-DNA (100 µM) in Tris–HCl buffer solution (pH = 7.1) was prepared, then compounds were solubilized in DMSO, added to the prepared solution to attain a range of concentration (0–160 µM) and (0–80 µM) for 3b and 3c, respectively. Then, the mixtures were incubated 3 min after each addition and the emission spectra (540–710 nm) were recorded using an excitation wavelength of 520 nm.
The interaction mode between compound and CT-DNA can be discriminated through fluorescence spectroscopy with the EtBr–CT-DNA system. EtBr is a classic indicator of intercalation where an intense fluorescence signal is emitted from the EtBr-CT-DNA system through intercalation of EtBr between adjacent DNA base pairs with no obvious signal for unaccompanied EtBr. […] The Stern–Volmer equation was used for the study of the effect of quenchers on the CT-DNA-EtBr system. F0/F= 1+KsvQ= 1+kqτ0[Q] where F0 and F are fluorescence intensities in the absence and presence of the compound used for quenching, respectively; KSV is a linear Stern–Volmer quenching constant; [Q] is the concentration of the quenching compound and τ0 is the fluorescence lifetime of the fluorophore (10^−8 s) in absence of the compound responsible for quenching. KSV for 3b and 3c is computed from the linear regression plot of F0/F against [Q]. Also, the binding constant (Kb) and the number of binding sites (n) were determined by the Scatchard method.
log((F0-F)/F)=logKb+nlog[Q]
Kb has been assigned as the intercept and n as the slope in the linear plotting of log((F0–F)/F) versus log[Q]. The detailed results for 3b and 3c were computed and depicted in Table 1.

[3] = tested on: CT-DNA; assay: CT-DNA UV-Visible absorption spectrophotometric titration; format: binding, calf; details: compound 25 μM, CT-DNA 0–60 μM; peak 423 nm (3b), 359 nm (3c)
Procedure: CT-DNA stock solution was prepared by dissolving CT-DNA in Tris/NaCl buffer (pH 7.1). Then, it was stored at 4°C and was manipulated within 4 days of preparation. The concentration was estimated by applying the equation C=A260nm/ε×b where C is the concentration of DNA solution, A is the absorbance at wavelength 260 nm, b is the path length and ε is the molar extinction coefficient of DNA that equals 6600 M^−1 cm^−1. The purity also was calculated using the absorbance ratio at wavelength 260 and 280 respectively, which was 1.8 indicating free DNA from protein contamination. Stock solutions of compounds 3b and 3c were prepared by dissolving in DMSO.
The interaction between the selected compounds (3b and 3c) and CT-DNA was assessed through the spectrophotometric titration method. In brief, a fixed concentration of compounds (25 μM) was mixed with an accumulative addition of CT-DNA (0–60 μM) at room temperature with a constant DMSO percentage of 5%. After 5 min from each addition, the UV–Vis absorption spectrum (250–650 nm) was recorded. The hyper/hypochromic percentage change at the characteristic peak of 3b and 3c was assessed using the formula: H%=Afree-Abound/Abound×100 . […] Standard Gibbs free energy (ΔG°) was calculated using the equation ΔG° = − RTlnKb (where T is the temperature, 298 K; R is the universal gas constant, 8.314 J K^−1 mol^−1).

[4] = target: T1, BSA; assay: BSA UV-Visible absorption spectrophotometric titration; format: binding, bovine; details: at 277 nm, BSA 15 μM, compound 0–40 μM
Procedure: BSA was dissolved in Tris/NaCl buffer (pH 7.1) to prepare the BSA stock solution, which was then kept at 4°C and utilized within a week after preparation. The concentration was evaluated by applying the equation C=A280nm/ε×b where C is the concentration of protein solution, A is the absorbance at wavelength 280 nm, b is the path length and ε is molar extinction coefficient of protein that equals 44,300 M^−1 cm^−1.
The interaction was evaluated through dilution of BSA to 15 μM in Tris/NaCl (pH 7.1) during the spectrophotometric titration. After that, the compounds dissolved in DMSO were added with a range of increasing concentration (0–40 μM), where the final DMSO percentage is 5%. UV–Vis absorption spectrum measurement for each concentration was assessed by Shimadzu UV-3101 PC NIR spectrophotometer after 3 min of each addition. The Kb for compounds 3b and 3c was calculated using equation [54]: 1/Aobs-A0=1/Ac-A0+1/KbAc-A0[compound] where A0, Aobs and Ac are absorbance of solution in the absence, various concentrations, and saturation of the compound at the characteristic peak, respectively. Where Kb is estimated from the plot of 1/Aobs-A0 versus 1/[Drug] .

[5] = tested on: HCT116 cells; assay: MTT cell viability assay, HCT116; format: cell-based; details: Homo sapiens, HCT-116; HCT116, absence of illumination (dark)
Procedure: (§1) The cytotoxicity of 3b and 3c against MDA-MB-231 and HCT116 cell lines, with and without illumination, was assessed using the MTT test. Two human cancer cell lines, including MDA-MB-231 and HCT116 cell lines, were purchased from the National Research Centre, Dokki, Cairo, Egypt. Briefly, 96-well plates were seeded with cells (5 × 10^3 cells/well) and left overnight. The compounds dissolved in DMSO were then applied to the cells following the serial dilution procedure in the range of 0–100 µM. The cells were then incubated for an additional 20 h. Subsequently, the cells were exposed to UV light for 20 min at a distance of 10 cm. To study the effects of the illumination, a control plate was created under the same circumstances but without illumination. The two plates were incubated for a further 20 h. After that, PBS was used to wash the cells and MTT solution (0.5 mg/ml) was added. To dissolve the generated formazan crystals, the solution was replaced with 100 µl of DMSO per well after 4 h of incubation. An ELISA reader operating at 492 nm was used to measure the absorbance after 15 min of plate shaking. By relating the absorbance of treated and negative control cells, the relative cell viability was calculated. GraphPad Prism software was used to calculate the half inhibitory concentration (IC50). Doxorubicin (0–100 μM) was utilized as a positive cytotoxicity control in the usual dark environment, while the vehicle (DMSO, 0.1%) was used as a negative control.

[6] = tested on: MDA-MB-231 cells; assay: MTT cell viability assay, MDA-MB-231; format: cell-based; details: Homo sapiens; MDA-MB-231, dark conditions
Procedure: as §1

kq [1] [M⁻¹ s⁻¹] | n (binding site numbers) [1] | Kb [1] [M⁻¹] | KSV [1] [M⁻¹] | hyperchromicity [4] | IC50 [5] [µM] | IC50 [6] [µM] | melting point [°C] | SMILES | kq [2] [M⁻¹ s⁻¹] | reduction in fluorescence intensity [2] | KSV [2] [M⁻¹] | hypochromism [3]
9.9e+12 | 1.3 | 34 | 99000 | ~ 48.2% | 82 | 64 | 250 to 252 | N#CC(=Cc1cn(-c2ccccc2)nc1-c1cccnc1)C(=O)Nc1nccs1 [Compound 3c, 2-Cyano-3-(1-phenyl-3-(pyridin-3-yl)-1H-pyrazol-4-yl)-N-(thiazol-2-yl)acrylamide] | 5.6e+11 | ~ 30.7% | 5600 | ~ 40%
 |  |  |  |  |  |  | 270 to 272 | N#CC(=Cc1cn(-c2ccccc2)nc1-c1ccc(Cl)cc1)C(=O)Nc1nccs1 [Compound 3f, 3-(3-(4-Chlorophenyl)-1-phenyl-1H-pyrazol-4-yl)-2-cyano-N-(thiazol-2-yl)acrylamide] |  |  |  | 
 |  |  |  |  | 40 | 64.8 |  | COc1cccc2c1C(=O)c1c(O)c3c(c(O)c1C2=O)C[C@@](O)(C(=O)CO)C[C@@H]3O[C@H]1C[C@H](N)[C@H](O)[C@H](C)O1 [doxorubicin, reference compound] |  |  |  | 
9e+12 | 1.3 | 30 | 90000 | ~ 52.2% | 72 | 91 | 252 to 256 | N#CC(=Cc1cn(-c2ccccc2)nc1-c1cccs1)C(=O)Nc1nccs1 [Compound 3b, 2-Cyano-3-(1-phenyl-3-(thiophen-2-yl)-1H-pyrazol-4-yl)-N-(thiazol-2-yl)acrylamide] | 2.9e+11 | ~ 33.3% | 2900 | ~ 14%
 |  |  |  |  |  |  | 255 to 257 | Cc1ccc(-c2nn(-c3ccccc3)cc2C=C(C#N)C(=O)Nc2nccs2)cc1 [Compound 3d, 2-Cyano-3-(1-phenyl-3-(p-tolyl)-1H-pyrazol-4-yl)-N-(thiazol-2-yl)acrylamide] |  |  |  | 
